Test results reported in US20130072424A1, “COMPOUNDS AND METHODS FOR PEPTIDE RIBONUCLEIC ACID CONDENSATE PARTICLES FOR RNA THERAPEUTICS” (MARINA BIOTECH, INC., priority 2005, published 2013).
Ends that are not written are not given here. Peptide text beside a SMILES is read from it. * marks the point of attachment. 5FAM = O=C1OC2(c3ccc(O)cc3Oc3cc(O)ccc32)c2ccc(C(=O)*)cc21

What was measured:
hTNF-α mRNA = experiment: Knockdown of hTNF-α gene expression by siRNA/peptide complexes in LPS-stimulated human monocytes (branch DNA mRNA); format: cell-based; conditions: human monocytes; for siRNA knockdown activity of TNF-α mRNA, in words: siRNAs A19S21, 21/21 and LC20; for siRNA Knockdown Activity: 20 nM siRNA; for KD: knockdown of hTNF-α mRNA vs Qneg, siRNAs A19S21, 21/21, LC20 at 20 nM, molar ratio 1 to 5
Method: Specifically, the ability of siRNA/peptide complexes to modulate expression of the human tumor necrosis factor-α (hTNF-α) gene was assessed. The significance of targeting the hTNF-α gene is that it is implicated in mediating the occurrence or progression of rheumatoid arthritis (RA) when over-expressed in human and other mammalian subjects.
Human monocytes were used as a model system to determine the effect of siRNA/peptide complexes on hTNF-α gene expression. Qneg represents a random siRNA sequence and functioned as the negative control. […] A19S21, 21/21 and LC20 are siRNAs that target hTNF-α mRNA.
Healthy human blood was purchased from Golden West Biologicals (CA), the peripheral blood mononuclear cells (PBMC) were purified from the blood using Ficoll-Pague plus (Amersham) gradient. Human monocytes were then purified from the PBMCs fraction using magnetic microbeads from Miltenyi Biotech. Isolated human monocytes were resuspended in IMDM supplemented with 4 mM glutamine, 10% FBS, 1× non-essential amino acid and 1× pen-strep, and stored at 4 C until use.
In a 96 well flat bottom plate, human monocytes were seeded at 100 K/well/100 μl in OptiMEM medium (Invitrogen). Exemplary polynucleotide delivery-enhancing polypeptides were mixed with 20 nM siRNA at a molar ratio of 1 to 5 in OptiMEM medium at room temperature for 5 minutes. At the end of incubation, FBS was added to the mixture (final 3%), and 50 μl of the mixture was added to the cells. The cells were incubated at 37° C. for 3 hours. After incubation, the cells were transferred to V-bottom plate and pelleted at 1500 rpm for 5 min. The cells were resuspended in growth medium (IMDM with glutamine, non-essential amino acid, and pen-strep). After an overnight incubation, the monocytes were stimulated by application of LPS (Sigma) at 1 ng/ml for 3 hours to increase expression of TNF-α expression levels. After induction by LPS, cells were collected as above for mRNA quantification, and supernatant was saved for protein quantification if desired.
For mRNA measurement, branch DNA technology from Genospectra (CA) was used according to manufacturer's specification. To quantitate mRNA level in the cells, both house keeping gene (cypB) and target gene (TNF-α) mRNA were measured, and the reading for TNF-α was normalized with cypB to obtain relative luminescence unit. […]

[1] = tested on: mouse tail fibroblast (MTF) cells; experiment: siRNA cell-uptake assay and MFI (Cy5-conjugated siRNA, flow cytometry), Examples 14-16; format: cell-based
Method: (§1) As described above, the cell-uptake assay determines the number of cells that receive Cy5-conjugated siRNA when complexed with a peptide. siRNA cell-uptake was assessed by flow cytometry (refer to Example 2 for details). Uptake was expressed as a percentage calculated by dividing the number of cells containing Cy5-conjugated siRNA by the total number of transfected and untransfected cells in culture. Mean Fluorescence Intensity (MFI) was measured by flow cytometry and determined the amount of Cy5-conjugated siRNA found within cells. The MFI value directly correlates with the amount of Cy5-conjugated siRNA within the cell, thus, a higher MFI value indicates a greater number of Cy5-conjugated siRNA within the cells.
The siRNA cell-uptake assay and MFI measurements were performed as described previously in Examples 2 and 3. […]

[2] = tested on: primary mouse tail fibroblast (MTF) cells; experiment: Peptide cell-uptake assay (FITC-labeled peptide, flow cytometry); format: cell-based; conditions: for Peptide FITC MFI: relative values
Method: The efficacy of the full-length and truncated forms of polypeptide PN73 to enter cells was tested in vitro by a cell-uptake assay with primary mouse tail fibroblast (MTF) cells. The number of cells in culture that receive the FITC-labeled peptide was measured by flow cytometry. The percentage peptide cell-uptake was expressed relative to the total number of cells present in the culture. In addition, the Mean Fluorescence Intensity (MFI) was used to evaluate the quantity of FITC-labeled peptide found within cells. MFI directly correlates with the amount of FITC-labeled peptide within the cell: higher relative MFI value correlates with a greater amount of intracellular FITC-labeled peptides. Peptides were evaluated at 0.63 μM, 2.5 μM and 10 μM concentrations; PN768 was tested at 2 μM, 10 μM and 50 μM. […]

[3] = tested on: mouse tail fibroblast (MTF) cells; experiment: Polypeptide mediated siRNA delivery screen (Cy5-siRNA cell-uptake and MFI), Example 17; format: cell-based; conditions: for MFI measurement relative to the PN643 positive control, in words / MFI measurement relative to the positive control: Cy5-conjugated siRNA; for percent siRNA cell-uptake activity (Table 24): Cy5 conjugated LC20 siRNA, concentration not given
Method: as §1, with “siRNA uptake by” for “As described above, the cell-uptake assay determines the number of”, “cells” for “cells that receive Cy5-conjugated siRNA when complexed with a peptide. siRNA cell-uptake”

in vitro = conditions: mouse, mouse tail fibroblast (MTF) cells
Method: Fluorescence activated cell sorting (FACS) analysis were performed using Beckman Coulter FC500 cell analyzer (Fullerton, Calif.). The instrument was adjusted according to the fluorescence probes used (FAM or Cy5 for siRNA and FITC and PE for CD14). Propidium iodide (Fluka, St Louis) and AnnexinV (R&D systems, Minneapolis) were used as indicators for cell viability and cytotoxicity. A brief step-by-step protocol is detailed below. • (a) After exposure to the complex of siRNA/peptide, cells were incubated for at least 3 hours. • (b) Wash cells with 200 μl PBS. • (c) Detach cells with 15 μl TE, incubate at 370 C. • (d) Re-suspend cells in five wells with 30 μl FACS solution (PBS with 0.5% BSA, and 0.1% sodium Azide). • (e) Combine all five wells into a tube. • (f) Add PI (Propidium iodide) 5 μl into each tube. • (g) Analyze the cells with fluorescence activated cell sorting (FCAS) according to manufacturer's instructions.
For siRNA uptake analysis, cells were washed with PBS, treated with trypsin (attached cells only), and then analyzed by flow cytometry. […] In order to differentiate the cellular uptake from the membrane insertion of fluorescence labeled siRNA, trypan blue was used to quench the fluorescence on the cell membrane surface.
FITC-tagged peptides were diluted in Opti-MEM® media (Invitrogen) for about 5 minutes at room temperature and then added to cells. Cells were transfected for 3 hours at and washed with PBS, treated with trypsin, and then analyzed by flow cytometry. Cell viability was determined as above. Cellular uptake was distinguished from the membrane insertion using trypan blue to quench any fluorescence on the cell membrane surface.

[4] = PN73 mutant series, peptide 0.63 μM
[5] = PN73 mutant series, peptide 1.25 μM
[6] = PN73 mutant series, peptide 2.5 μM
[7] = PN73 mutant series, peptide 5 μM

KRSRKESYSVYVYKVLKQ-GK[EPSILON-5CFG-amide (KRSRKESYSVYVYKVLKQG-{K(5CF)-Gly-NH2}) [PN654]
siRNA knockdown activity of TNF-α mRNA, in words (hTNF-α mRNA): moderate knockdown activity for both the A19S21 and 21/21 siRNAs but not for the LC20 siRNA | % siRNA Cell-Uptake ([1]; peptide 10 μM): 27 (10 μM) % | siRNA Cy5 MFI ([1]; peptide 10 μM, relative values): 14 (10 μM) | % Peptide Cell-Uptake ([2]; peptide 10 μM): 95 (10 μM) % | Peptide FITC MFI ([2]; peptide 10 μM): 10 (10 μM)

KKKKKRFSFKKSFKLSGFSFKKNKK-amide (KKKKKRFSFKKSFKLSGFSFKKNKK-NH2) [PN681, MARCKS]
hTNF-α knockdown relative to Qneg complexed with the same polypeptide, in words (hTNF-α mRNA; all three siRNAs, ratios of 1:5 and 1:10): little to no knockdown activity | siRNA Knockdown Activity (hTNF-α mRNA; siRNA 21/21 MD8, siRNA:Peptide Ratio 1:5): − | siRNA Knockdown Activity (hTNF-α mRNA; siRNA 21/21 MD8, siRNA:Peptide Ratio 1:10): − | siRNA Knockdown Activity (hTNF-α mRNA; siRNA A19S21 MD8, siRNA:Peptide Ratio 1:5): +/− (the peptide/siRNA complex had a knockdown activity of approximately 90% of the Qneg negative control siRNA (10% reduction in mRNA levels compared to the Qneg negative control)) | siRNA Knockdown Activity (hTNF-α mRNA; siRNA A19S21 MD8, siRNA:Peptide Ratio 1:10): +/− (the peptide/siRNA complex had a knockdown activity of approximately 90% of the Qneg negative control siRNA (10% reduction in mRNA levels compared to the Qneg negative control)) | siRNA Knockdown Activity (hTNF-α mRNA; siRNA LC20, siRNA:Peptide Ratio 1:5): − | siRNA Knockdown Activity (hTNF-α mRNA; siRNA LC20, siRNA:Peptide Ratio 1:10): − | MFI measurement relative to the PN643 positive control, in words [3]: double

VYVYKVLKQ-GK[EPSILON-5CFG-amide (VYVYKVLKQG-{K(5CF)-Gly-NH2}) [PN652]
% siRNA Cell-Uptake ([1]; peptide 10 μM): 1.8 (10 μM) % | siRNA Cy5 MFI ([1]; peptide 10 μM, relative values): 5 (10 μM) | % Peptide Cell-Uptake ([2]; peptide 10 μM): 86 (10 μM) % | Peptide FITC MFI ([2]; peptide 10 μM): 5 (10 μM)

CC(C)C[C@H](NC(=O)[C@@H](NC(=O)[C@H](CCCCN)NC(=O)[C@H](Cc1ccc(O)cc1)NC(=O)[C@@H](NC(=O)[C@H](Cc1ccc(O)cc1)NC(=O)[C@@H](NC(=O)[C@H](CO)NC(=O)[C@H](Cc1ccc(O)cc1)NC(=O)[C@H](CO)NC(=O)[C@H](CCC(=O)O)NC(=O)[C@H](CCCCN)NC(=O)[C@@H](N)CCCNC(=N)N)C(C)C)C(C)C)C(C)C)C(=O)N[C@@H](CCCCN)C(=O)N[C@@H](CCC(N)=O)C(=O)NCC(=O)N[C@@H](CCCCNC(=O)c1ccc2c(c1)C(=O)OC21c2ccc(O)cc2Oc2cc(O)ccc21)C(=O)NCC(N)=O [PN708] (H-RKESYSVYVYKVLKQGK(5FAM)G-NH2)
viability at 3 h (in vitro): > 90% | KD (hTNF-α mRNA): + (the peptide/siRNA complex had knockdown activity of 80% of the Qneg negative control siRNA (20% reduction in mRNA levels compared to the Qneg negative control)) | siRNA knockdown activity of TNF-α mRNA, in words (hTNF-α mRNA): no observable knockdown activity | amount of Cy5-siRNA delivered into cells compared to the full-length PN73 (PN690) peptide [1]: about doubled | maximum siRNA cell-uptake activity ([1]; Cy5-LC20 siRNA, PN708 at 80 μM): 95% | % siRNA Cell-Uptake ([1]; peptide 10 μM): 42 (10 μM) % | siRNA Cy5 MFI ([1]; peptide 10 μM, relative values): 34 (10 μM) | % Peptide Cell-Uptake ([2]; peptide 10 μM): 97 (10 μM) % | Peptide FITC MFI ([2]; peptide 10 μM): 10 (10 μM)

YKVLKQ-GK[EPSILON-5CFG-amide [PN651]
% siRNA Cell-Uptake ([1]; no peptide concentration printed): 0% | siRNA Cy5 MFI ([1]; peptide .65 μM, relative values): 3 (.65 μM) | % Peptide Cell-Uptake ([2]; peptide 10 μM): 90 (10 μM) % | Peptide FITC MFI ([2]; peptide 10 μM): 5 (10 μM)

KVLKQ-GK[EPSILON-5CFG-amide [PN768]
% Peptide Cell-Uptake ([2]; peptide 50 µM): 91 (50 µM) % | Peptide FITC MFI ([2]; peptide 50 μM): 9 (50 μM)

RQIKIWFQNRRMKWKK-amide (RQIKIWFQNRRMKWKK-NH2) [PN694, Penetratin]
MFI measurement relative to the PN643 positive control, in words [3]: significantly lower | percent siRNA cell-uptake activity (Table 24) [3]: 54%

KETWWETWWTEWSQPKKKRKV-amide (KETWWETWWTEWSQPKKKRKV-NH2) [PN682, Pep-1]
MFI measurement relative to the PN643 positive control, in words [3]: comparable

RKKRRQRRRPPVAYISRGGVSTYYSDTVKGRFTRQKYNKRA-amide (RKKRRQRRRPPVAYISRGGVSTYYSDTVKGRFTRQKYNKRA-NH2) [PN760, TAT + Peptide P3a]
MFI measurement relative to the positive control [3]: approximately 13 fold

RQIRIWFQNRRMRWRR-amide (RQIRIWFQNRRMRWRR-NH2) [PN714, PenArg]
MFI measurement relative to the PN643 positive control, in words [3]: significantly lower | percent siRNA cell-uptake activity (Table 24) [3]: 43%

SYSVYVYKVLKQ-GK[EPSILON-5CFG-amide (SYSVYVYKVLKQG-{K(5CF)-Gly-NH2}) [PN653]
KD (hTNF-α mRNA): − | % siRNA Cell-Uptake ([1]; peptide 10 μM): 1.7 (10 μM) % | siRNA Cy5 MFI ([1]; peptide 10 μM, relative values): 4 (10 μM) | % Peptide Cell-Uptake ([2]; peptide 10 μM): 95 (10 μM) % | Peptide FITC MFI ([2]; peptide 10 μM): 8 (10 μM)

LGLLLRHLRHHSNLLANIPRKKRRQRRRPP-amide (LGLLLRHLRHHSNLLANIPRKKRRQRRRPP-NH2) [PN759]
MFI measurement relative to the positive control [3]: ~6 fold

GTAMRILGGVIPRKKRRQRRRPPQ-amide (GTAMRILGGVIPRKKRRQRRRPPQ-NH2) [PN734, m-Calpain + TAT]
MFI measurement relative to the PN643 positive control, in words [3]: significantly lower

CC(C)C[C@H](NC(=O)[C@@H](NC(=O)[C@H](CCCCN)NC(=O)[C@H](Cc1ccc(O)cc1)NC(=O)[C@@H](NC(=O)[C@H](Cc1ccc(O)cc1)NC(=O)[C@@H](NC(=O)[C@H](CO)NC(=O)[C@H](Cc1ccc(O)cc1)NC(=O)[C@H](CO)NC(=O)[C@H](Cc1c[nH]c2ccccc12)NC(=O)[C@H](CCCCN)NC(=O)[C@H](CCCNC(=N)N)NC(=O)[C@H](CO)NC(=O)[C@H](CCCNC(=N)N)NC(=O)[C@H](CCCCN)NC(=O)[C@H](CCCNC(=N)N)NC(=O)[C@H](CCCCN)NC(=O)[C@H](CCCCN)NC(=O)CNC(=O)[C@H](CC(=O)O)NC(=O)[C@H](CCCCN)NC(=O)[C@H](CCCCN)NC(=O)[C@H](CCC(N)=O)NC(=O)[C@H](C)NC(=O)[C@H](CCCCN)NC(=O)[C@@H](NC(=O)[C@@H](NC(=O)[C@H](C)NC(=O)[C@H](CCCCN)NC(=O)[C@H](CCCCN)NC(=O)[C@H](CO)NC(=O)CNC(=O)[C@@H](N)CCCCN)C(C)C)[C@@H](C)O)C(C)C)C(C)C)C(C)C)C(=O)N[C@@H](CCCCN)C(=O)N[C@@H](CCC(N)=O)C(N)=O [PN645]
viability at 0.63 µM (in vitro): 84% | viability at 1.25 µM (in vitro): 89% | viability at 2.5 µM (in vitro): 90% | viability at 5 µM (in vitro): 90% | % siRNA Cell-Uptake [1, 4]: 68% | siRNA Cy5 MFI [1, 4]: 5 | % siRNA Cell-Uptake [1, 5]: 70% | siRNA Cy5 MFI [1, 5]: 11 | % siRNA Cell-Uptake [1, 6]: 78% | siRNA Cy5 MFI [1, 6]: 21 | % siRNA Cell-Uptake [1, 7]: 88% | siRNA Cy5 MFI [1, 7]: 28
